Measurements reported in PubChem BioAssay AID489023 (Sanford-Burnham Center for Chemical Genomics, 2010).
The source made the active and inactive calls. How the calls were made is not given here.

Each molecule was assayed on 697B cells, BCR-induced NF-kB luciferase reporter luminescence (assay: B-cell receptor NF-kB reporter inhibition – 697B cells, luciferase luminescence, dose response (AID 489023)).

| Compound | IC50 |
| --- | --- |
| CC1CCN(C(=O)CCCOc2cc(=O)n(C)c3ccccc23)CC1 | > 80 µM (inactive) |
| COc1ccc(-c2noc(N3CCC(C(=O)Nc4ccc(OC)c(OC)c4)CC3)n2)cc1 | > 80 µM (inactive) |
| CC(=O)c1cn(CCOc2cc(C)ccc2C)c2ccccc12 | > 80 µM (inactive) |
| COc1ccc(OC)c(NC(=O)c2[nH]c(C)c(C(C)=O)c2C)c1 | > 80 µM (inactive) |
| COc1ccc(/C=C2/SC(=S)N(CCCC(=O)Nc3ccc(O)cc3)C2=O)cc1OC | > 80 µM (inactive) |
| Cc1ccc(/C=C2\SC(=S)N(CCCC(=O)Nc3cc(C)on3)C2=O)cc1 | 34.3 µM (inactive) |
| COc1ccc(CC(=O)Nc2cccc(-c3ccc4nnc(C)n4n3)c2)cc1 | 71.7 µM (inactive) |
| CCn1c(=O)cc(SCC(=O)N2CCC3(CC2)OCCO3)c2ccccc21 | > 80 µM (inactive) |
| COc1ccc(C(=O)Nc2nnc(SCC(=O)Nc3ccc(NC(C)=O)cc3)s2)c(OC)c1 | > 80 µM (inactive) |
| COc1ccc(NC(=O)c2nnn(Cc3cccc(F)c3)c2N)c(OC)c1 | > 80 µM (inactive) |
| c1ccc(CCNc2ncnc3ccccc23)cc1 | 60.1 µM (inactive) |
| CC(C)c1[nH]nc2c1C(c1ccco1)C(C#N)=C(N)O2 (stereo not given) | > 80 µM (inactive) |
| COc1ccc2nc(Sc3c([N+](=O)[O-])nc(C)n3Cc3ccccc3)[nH]c2c1 | 18.2 µM |
| Cc1ccc(/C=C2\SC(=S)N(CCCC(=O)NC3CCCC3)C2=O)cc1 | 1.13 µM |
| COc1cc(NC(=O)c2cc3c(C)nc4ccccc4c3o2)cc(OC)c1OC | 14.1 µM |
| CCOc1ccc(/C=C2\SC(=S)N(CCC(=O)Nc3ccc(C(=O)O)cc3)C2=O)cc1 | 1.35 µM |
| Nc1ccc(-c2cc3ccccc3oc2=O)cc1 | 0.39 µM |
| CCOc1ccc(NC(=O)CCCc2cc(-c3ccc(OCC)cc3)on2)cc1 | 1.95 µM |
| CCCc1nc2c(C)cc(-c3nc4ccccc4n3C)cc2n1Cc1ccc(-c2ccccc2C(=O)O)cc1 | 72.5 µM (inactive) |
| COc1ccc(OC)c(C2CC(=O)Nc3cc(OC)c(OC)c(OC)c32)c1 (stereo not given) | > 80 µM (inactive) |
| CCN1C(=O)c2cccc3c(S(=O)(=O)N4CCC(C)CC4)ccc1c23 | 49.3 µM (inactive) |
| Cc1cc(C)cc(NC(=O)Nc2ccc(NC(=O)c3ccccc3O)cc2)c1 | > 80 µM (inactive) |
| CCC(CO)Oc1cc(NCc2ccccc2O)c2ncn(C(C)C)c2c1 (stereo not given) | > 80 µM (inactive) |
| COc1ccc(-c2ccc(C)cc2)cc1[C@H]1[C@H]2C=CC[C@@H](C)[C@@H]2C(=O)N1Cc1ccccc1 | > 80 µM (inactive) |
| CCOc1ccc(-c2nc(CSCC(=O)NCc3ccco3)c(C)o2)cc1 | 0.32 µM |

| Compound | IC50 |
| --- | --- |
| COc1cccc(/C=C2\SC(=S)N(CCCC(=O)NC3=NCCS3)C2=O)c1 | 56.3 µM (inactive) |
| C(=N\Nc1nc(Nc2ccccc2)nc(Nc2ccccc2)n1)/c1cccnc1 | > 80 µM (inactive) |
| CCC(=O)N1c2ccccc2[C@@H](N(C(C)=O)c2ccccc2)C[C@H]1C | 58.2 µM (inactive) |
| Cc1c(CC(=O)NCCCC(=O)O)c(=O)oc2cc3c(cc12)CCC(C)(C)O3 | 6.82 µM |
| Cc1ccc(C(=O)C[n+]2cc(-c3ccc(C)cc3)n3c2CCCCC3)cc1 | 38.9 µM (inactive) |
| CC(C)C(c1nnnn1Cc1ccccc1)N(Cc1ccco1)Cc1cccs1 (stereo not given) | > 80 µM (inactive) |
| O=c1cccc2c1c1cc[nH]c3ccc(=O)n2c31 | 2.1 µM |
| O=C(N/N=C/c1cccnc1)c1cc(-c2ccccc2OCc2ccccc2)n[nH]1 | 6.82 µM |
| O=C(Nc1nc2c(Br)cc(Br)cc2c(=O)s1)c1ccco1 | 1.8 µM |
| CCCOc1ccc(NC(=O)C(=O)NCCCn2ccnc2)cc1 | 14.2 µM |
| COc1ccc(-c2ccc(C(C)=O)cc2)cc1[C@H]1[C@H]2C=CC[C@@H](C)[C@@H]2C(=O)N1Cc1ccccc1 | > 80 µM (inactive) |
| COc1cc(/C=N/Nc2nc(Nc3ccccc3)nc(N3CCOCC3)n2)ccc1OC(=O)c1ccco1 | 5.16 µM |
| Cc1ccc(Nc2nc(N/N=C\c3ccc4c(c3)OCO4)nc(N3CCOCC3)n2)cc1 | 3.11 µM |
| CCN1C(=O)c2cccc3c(S(=O)(=O)Nc4ccccn4)ccc1c23 | 25.2 µM (inactive) |
| CCCC(=O)Nc1ccc(Sc2ccc([N+](=O)[O-])cc2)cc1 | 69.3 µM (inactive) |
| Cc1cccn2c(=O)c3cc(C(=O)NC4CCCCC4)c(=N)n(CCN4CCOCC4)c3nc12 | > 80 µM (inactive) |
| CC(C)(C)c1ccc(-c2cc(N)n[nH]2)cc1 | 15.6 µM |
| COc1ccc(-c2noc(CCCC(=O)Nc3ccc(C(N)=O)cc3)n2)cc1 | 8.71 µM |
| CC(C)c1ccc(/C=C2\SC(=S)N(CCC(=O)N3CCCCC3CCO)C2=O)cc1 (stereo not given) | 1.63 µM |
| O=C1CCC2S/C(=C/Nc3ccc(C(F)(F)F)cc3)C(=O)N12 (stereo not given) | 0.93 µM |
| COc1ccc(-n2ncc3c(N4CCC(C(N)=O)CC4)ncnc32)cc1 | > 80 µM (inactive) |
| Cc1c(CCC(=O)N2CCC(C(=O)O)(c3ccccc3)CC2)c(=O)oc2cc3oc4c(c3cc12)CCCC4 | > 80 µM (inactive) |
| Cc1ccc(C)c(OCc2ccc(C(=O)NN)o2)c1 | > 80 µM (inactive) |
| CC1(C)CC2CC(C)(CN2S(=O)(=O)c2ccc(C(=O)Nc3ccc(S(=O)(=O)N4CCOCC4)cc3)cc2)C1 (stereo not given) | > 80 µM (inactive) |
| Cc1ccc(/C=C2\SC(=S)N(CCCC(=O)Nc3cccnc3)C2=O)cc1 | 0.25 µM |
